Entries after “also recorded” stand apart in the source; their conditions may differ.
Key:
[1] = test system: CRF01_AE Env (92TH023 and CM244 isolates) WT or mutated; experiment: Cell-surface staining of HEK293T cells transfected with CRF01_AE Env expressors, Env ligand binding with or without compound; assay type: cell-based, HIV-1
Method: Cell-surface staining of HEK293T cells transfected with different CRF01_AE Env expressors (92TH023 and CM244 isolates) WT or their mutated counterparts together with a GFP expressor (in order to identify positively transfected cells) using a panel of Env ligands. (FIG. 4A, B) sCD4 binding in presence of BNM-III-170 (50 μM) or not (DMSO) was detected with the anti-CD4 OKT4 mAb. Binding of broadly-neutralizing antibodies (bNAbs) that preferentially recognize state 1 Env (Lu M et al. 2019. Nature 568, pages 415-419; Munro J B et al., 2014. Science 346:759-763) (FIG. 4B, E) and non-neutralizing antibodies (nnAbs) that preferentially recognize states 2/2A/3 (Alsahafi N et al., 2019. Cell Host Microbe 25:578-587, Prevost J et al., 2018. Virology 515:38-45) (FIG. 4C, F) was also performed in presence of BNM-III-170 (50 μM) or not (DMSO). Shown are the mean fluorescence intensities (MFI) obtained in presence of BNM-III-170 normalized to the MFI in absence of BNM-111-170 (DMSO) from the transfected (GFP+) population for staining obtained in at least 3 independent experiments. All MFI were normalized to MFI signals obtained with the anti-gp120 outer domain 2G12. Decrease in sCD4 signal indicates competition with BNM-III-170 (i.e., this represents an indirect measure of BNM-III-170 interaction with each Env mutant) (FIGS. 4A and D). […] Increase in nnAbs signal is consistent with the capacity of BNM-III-170 to push Env to downstream “open” states 2/3 conformations (C and F). […] Error bars indicate mean±SEM. Statistical significance was tested using an unpaired t-test (* p<0.05, ** p<0.01, *** p<0.001, **** p<0.0001, ns: non significant).
(§1) FIGS. 6A-F show the effect of Phe43 cavity and layer mutations (LM) on neutralization by small molecules known to stabilize Env State 1. Recombinant HIV-1 strains expressing luciferase and bearing wild-type or mutant CRF01_AE Envs (92TH023 and CM244 isolates) were normalized by reverse transcriptase activity. Normalized amounts of viruses were incubated with serial dilutions of BMS-626529 (Nowicka-Sans B et al. 2012. Antimicrob Agents Chemother 56:3498-3507; Pancera M et al., 2017. Nat Chem Biol 13:1115-1122) (FIG. 6A, B) or 484 (16) (FIG. 6C) at 37° C. for 1 h prior to infection of Cf2Th-CD4/CCR5 cells. Infectivity at each dilution of the compound tested is shown as the percentage of infection without the compound for each particular mutant. Quadruplicate samples were analyzed in each experiment. Data shown are the means of results obtained in at least 3 independent experiments. The error bars represent the standard deviations. (FIG. 6E, F) Cell-surface staining of 293T cells transfected with different CRF01_AE Env expressors (92TH023 and CM244 isolates) WT or their mutated counterparts together with a GFP expressor (in order to identify positively transfected cells) using sCD4. Binding of sCD4 in presence of BMS-626529 (50 μM) or not (DMSO) was detected with the anti-CD4 OKT4 mAb. Shown are the mean fluorescence intensities (MFI) obtained in presence of BNM-III-170 normalized to the MFI in absence of BNM-III-170 (DMSO) from the transfected (GFP+) population for staining obtained in at least 3 independent experiments. All MFI were normalized to 2G12 MFI for each Env mutants. Decrease in sCD4 signal indicates competition with BMS-626529 (i.e., this represents an indirect measure of BMS-626529 interaction with each Env mutant). […] Error bars indicate mean±SEM. Statistical significance was tested using an unpaired t-test (** p<0.01, ns: non significant).
To gain a better understanding of the impact that the LM and 375 changes have on Env conformation, an assay to measure sCD4 and BNM-III-170 capacity to interact with Env was developed. Briefly, CD4-negative cells were transfected with Env variants. Two days post-transfection, BNM-III-170 or the vehicle (DMSO) was added to Env-expressing cells. […]

[2] = test system: Recombinant HIV-1 strains bearing wild-type or mutant CRF01_AE Envs (92TH023 and CM244 isolates); experiment: Neutralization of recombinant luciferase HIV-1 bearing wild-type or mutant CRF01_AE Envs, infection of Cf2Th-CD4/CCR5 cells; assay type: cell-based
Method: J Virol 74:10690-10698). Infectivity at each dilution of sCD4 or CD4mc tested is shown as the percentage of infection without sCD4 or CD4mc for each particular mutant. Quadruplicate samples were analyzed in each experiment. Data shown are the means of results obtained in at least 3 independent experiments. The error bars represent the standard deviations. […]
as §1, with “significant). […]” for “significant).”
CD4mc were used as probes to evaluate the potential impact of the LM residues on shaping the Phe43 cavity. […] In contrast, no or very little effect was measured in recombinant viruses with mutations in the Phe43 cavity only or in the inner domain layer only.

[3] = test system: CRF01_AE Env from a transmitted founder strain (40100 isolate) with LM+HS mutations; experiment: Cell-surface staining of primary CD4+ T cells infected with SHIV expressing CRF01_AE Env, anti-Env mAb binding with compound; assay type: cell-based
Method: Cell-surface staining of primary CD4^+ T cells infected with SHIV expressing a CRF01_AE Env from a transmitted founder strain (40100 isolate) (Chenine A L et al., 2018. J Acquir Immune Defic Syndr 78:348-355; Kijak G H et al., 2017. PLoS Pathog 13:e1006510) mutated to harbor the LM+HS mutations using a panel of Env ligands. Binding of anti-Env mAbs preferring State 1 (PGT128, PGT145, PG9, 10-1074) (FIG. 7A-D) or preferring State 2/3 (19b, 17b) (FIG. 7E-F) was performed in presence of DMSO or increasing amount of BNM-III-170 (stabilises States 2/3 (Munro J B et al., 2014. Science 346:759-763; Alsahafi N et al., 2019. Cell Host Microbe 25:578-587: e575; Herschhorn A, et al. 2017. Nat Commun 8:1049) or BMS-626529 (stabilizes State 1, (Lu M et al. 2019. Nature 568, pages 415-419; Munro J B et al., 2014. Science 346:759-763)). Shown are the mean fluorescence intensities (MFI) obtained in presence of the compounds normalized to the MFI in absence of any compound (DMSO) from the infected (p27+) population. All MFI were normalized to 2G12 MFI for each mAb. State 1 and State 2/3 Abs were grouped in FIG. 7G and FIG. 7H, respectively.

[4] = LM+HS or LM+HT mutants of CRF01_AE Envs versus wild-type
[5] = LM+HS or LM+HT mutants, BNM-III-170 50 μM vs DMSO

SMILES | Env conformation adopted in presence of ligand ([1]; CRF01_AE gp160 with the same six mutations combined with H375S) | sCD4 signal in presence of compound (competition, indirect measure of interaction with Env) ([1]; LM-HS mutant, BMS-626529 50 μM vs DMSO, detected with anti-CD4 OKT4 mAb) | sensitivity to neutralization [2, 4] | Env recognition by bNAbs preferentially binding state 1 in presence of compound ([3]; increasing amount of BMS-626529 vs DMSO) | Env conformation adopted in presence of ligand ([1]; CRF01_AE gp160 with H61Y, Q105H, V108I, N474D, I475M, K476R combined with H375T) | compound-induced Env conformational changes (open conformation) [1, 5] | recognition by state 1 preferring bNAbs in presence of compound [1, 5] | sCD4 and nnAbs binding (open state 2/3 preferring) in presence of compound [1, 5] | susceptibility to neutralization ([2]; H375S combined with LM mutations (LM+HS), both CRF01_AE strains) | neutralization of pseudotypes ([2]; H375S mutant of both CRF01_AE Envs) | sensitivity to neutralization ([2]; different combinations of single or multiple layer mutations together with H375S) | neutralization of viral particles ([2]; wild-type CRF01_AE Envs (92TH023 and CM244)) | Env recognition by nnAbs preferentially binding states 2/3 in presence of compound ([3]; increasing amount of BNM-III-170 vs DMSO)
COc1cnc(-n2cnc(C)n2)c2[nH]cc(C(=O)C(=O)N3CCN(C(=O)c4ccccc4)CC3)c12 [BMS-626529, temsavir] | tend to adopt a state 1 configuration | statistically significant decrease | sensitized | enhanced Env recognition |  |  |  |  |  |  |  |  | 
CNCc1ccc2c(c1)C[C@H](CN=C(N)N)[C@H]2NC(=O)C(=O)Nc1ccc(Cl)c(F)c1.O=C(O)C(F)(F)F.O=C(O)C(F)(F)F [BNM-III-170] |  |  | more sensitive to neutralization |  | tend to adopt an open state 2/3 configuration | superior; also recorded: more susceptible | decrease in recognition | increase in sCD4 and nnAbs binding | dramatically enhanced the susceptibility | did not restore neutralization sensibility | did not restore sensitivity | resistant to neutralization | enhanced Env recognition

From patent publication US20220380414A1, “COMPOSITIONS AND METHODS BASED ON HIV GP120 MUTANTS” (CENTRE H[…] L'UNIVERSITÉ DE MONTRÉAL, priority 2019, published 2022)
